Experimental findings from patent US10004701B2, “Methods and compositions for treating infection” (UNIVERSITY OF ROCHESTER, priority 2012, dated 2018) are described below.

Test in all cases: AK assay 384-well format, Prestwick library screening
Test [1] concerns E. cloacae. Type of test: cell-based, Enterobacter cloacae. The settings on record: Enterobacter cloacae, 3 h, 50 μM final drug concentration.
Test [2] concerns P. aeruginosa. It is filed as cell-based, Pseudomonas aeruginosa. Conditions: Pseudomonas aeruginosa, 3 h, 50 μM final drug concentration.
Test [3] concerns A. baumannii strain 98-37-09. It is filed as cell-based, Acinetobacter baumannii. The settings on record: Acinetobacter baumannii, 983709, 3 h, 50 μM final drug concentration.
Test [4] concerns K. pneumoniae. Type of test: cell-based, Klebsiella pneumoniae. The settings on record: Klebsiella pneumoniae, 3 h, 50 μM final drug concentration.
The test system of test [5] is E. faecium. Type of test: cell-based, Enterococcus faecium. Conditions: Enterococcus faecium, 3 h, 50 μM final drug concentration.
Test [6] has as its system E. coli. It is filed as cell-based, Escherichia coli. The settings on record: Escherichia coli, 3 h, 50 μM final drug concentration.
Test [7] deals with S. aureus strain USA300-0114. Type of test: cell-based, Staphylococcus aureus. Conditions: Staphylococcus aureus, USA300, 3 h, 50 μM final drug concentration.
Setting [8] is: planktonic, cutoff for positive 3-fold increase, read-out: AK-based Prestwick Library Screening Results, E. cloacae (fold increase in extracellular AK activity).
The mark [9] stands for this setting: planktonic, cutoff for positive 3-fold increase, read-out: AK-based Prestwick Library Screening Results, P. aeruginosa (fold increase in extracellular AK activity).
Where [10] appears, read: planktonic, cutoff for positive 3-fold increase, read-out: AK-based Prestwick Library Screening Results, A. baumannii (fold increase in extracellular AK activity).
Setting [11] is: planktonic, cutoff for positive 3-fold increase, read-out: AK-based Prestwick Library Screening Results, K. pneumoniae (fold increase in extracellular AK activity).
[12] abbreviates: planktonic, cutoff for positive 3-fold increase, read-out: AK-based Prestwick Library Screening Results, E. faecium (fold increase in extracellular AK activity).
Where [13] appears, read: planktonic, cutoff for positive 3-fold increase, read-out: AK-based Prestwick Library Screening Results, E. coli (fold increase in extracellular AK activity).
Where [14] appears, read: planktonic, cutoff for positive 3-fold increase, read-out: AK-based Prestwick Library Screening Results, S. aureus (fold increase in extracellular AK activity).
Setting [15] is: planktonic E. cloacae, 384-well, cutoff for positive-scoring molecules 3-fold increase, read-out: AK-based Prestwick Library Screening Results: E. cloacae (increase in extracellular AK activity).
The mark [16] stands for this setting: planktonic P. aeruginosa, 384-well, cutoff for positive-scoring molecules 3-fold increase, read-out: AK-based Prestwick Library Screening Results: P. aeruginosa (increase in extracellular AK activity).
Where [17] appears, read: planktonic A. baumannii, 384-well, cutoff for positive-scoring molecules 3-fold increase, read-out: AK-based Prestwick Library Screening Results: A. baumannii (increase in extracellular AK activity).
Where [18] appears, read: planktonic K. pneumoniae, 384-well, cutoff for positive-scoring molecules 3-fold increase, read-out: AK-based Prestwick Library Screening Results: K. pneumoniae (increase in extracellular AK activity).
Setting [19] is: planktonic E. faecium, 384-well, cutoff for positive-scoring molecules 3-fold increase, read-out: AK-based Prestwick Library Screening Results: E. faecium (increase in extracellular AK activity).
[20] abbreviates: planktonic E. coli, 384-well, cutoff for positive-scoring molecules 3-fold increase, read-out: AK-based Prestwick Library Screening Results: E. coli (increase in extracellular AK activity).
The mark [21] stands for this setting: planktonic S. aureus, 384-well, cutoff for positive-scoring molecules 3-fold increase, read-out: AK-based Prestwick Library Screening Results: S. aureus (increase in extracellular AK activity).
[22] abbreviates: planktonic E. cloacae, cutoff for positive-scoring molecules 3-fold increase, read-out: AK-based Prestwick Library Screening Results, E. cloacae (increase in extracellular AK activity).
Setting [23] is: planktonic P. aeruginosa, cutoff for positive-scoring molecules 3-fold increase, read-out: AK-based Prestwick Library Screening Results, P. aeruginosa (increase in extracellular AK activity).
Setting [24] is: planktonic A. baumannii, cutoff for positive-scoring molecules 3-fold increase, read-out: AK-based Prestwick Library Screening Results, A. baumannii (increase in extracellular AK activity).
The mark [25] stands for this setting: planktonic K. pneumoniae, cutoff for positive-scoring molecules 3-fold increase, read-out: AK-based Prestwick Library Screening Results, K. pneumoniae (increase in extracellular AK activity).
[26] abbreviates: planktonic E. faecium, cutoff for positive-scoring molecules 3-fold increase, read-out: AK-based Prestwick Library Screening Results, E. faecium (increase in extracellular AK activity).
Setting [27] is: planktonic E. coli, cutoff for positive-scoring molecules 3-fold increase, read-out: AK-based Prestwick Library Screening Results, E. coli (increase in extracellular AK activity).
[28] abbreviates: planktonic S. aureus, cutoff for positive-scoring molecules 3-fold increase, read-out: AK-based Prestwick Library Screening Results, S. aureus (increase in extracellular AK activity).

Structures can show the parent of a compound that is named as a salt. Where two headings read alike, the source gives them in different places.

With `NC(Cn1ccc(=O)c(O)c1)C(=O)O` (stereo not drawn) [Mimosine], the fold induction at 50 µM in test [1] (setting [8]) worked out at 1.5; in test [2] (setting [9]), 1.1; in test [3] (setting [10]), 0.9; in test [4] (setting [11]) it was 0.9; in test [5] (setting [12]), 1; in test [6] (setting [13]), 1. The fold induction at 50 µM in test [7] (setting [14]) was 1.4.
For `Cc1cc(-c2ccccc2)nnc1NCCN1CCOCC1` [Minaprine dihydrochloride], the fold induction at 50 µM came out at 1.3 in test [1] (setting [15]); 1.1 in test [2] (setting [16]); 1.3 in test [3] (setting [17]); 0.9 in test [4] (setting [18]); 0.8 in test [5] (setting [19]); 1.3 in test [6] (setting [20]). Besides, the fold induction at 50 µM in test [7] (setting [21]) was determined as 1.
In the case of `CN(C)c1ccc(O)c2c1C[C@H]1C[C@H]3[C@H](N(C)C)C(O)=C(C(N)=O)C(=O)[C@@]3(O)C(O)=C1C2=O` [Minocycline hydrochloride], the fold induction at 50 µM worked out at 0.9 in test [1] (setting [15]); 0.7 in test [2] (setting [16]); 3.9 in test [3] (setting [17]); 0.6 in test [4] (setting [18]); 1.1 in test [5] (setting [19]); 2.3 in test [6] (setting [20]). In test [7] (setting [21]), the fold induction at 50 µM is 6.9.
For `Nc1cc(N2CCCCC2)nc(N)[n+]1[O-]` [Minoxidil], the fold induction at 50 µM turned out to be 0.7 in test [1] (384-well format, cutoff for positive-scoring molecules 3-fold increase, read-out: AK-based Prestwick Library Screening Results, E. cloacae (increase in extracellular AK activity)); 0.6 in test [2] (384-well format, cutoff for positive-scoring molecules 3-fold increase, read-out: AK-based Prestwick Library Screening Results, P. aeruginosa (increase in extracellular AK activity)); 0.8 in test [3] (384-well format, cutoff for positive-scoring molecules 3-fold increase, read-out: AK-based Prestwick Library Screening Results, A. baumannii (increase in extracellular AK activity)); 0.6 in test [4] (384-well format, cutoff for positive-scoring molecules 3-fold increase, read-out: AK-based Prestwick Library Screening Results, K. pneumoniae (increase in extracellular AK activity)); 1 in test [5] (384-well format, cutoff for positive-scoring molecules 3-fold increase, read-out: AK-based Prestwick Library Screening Results, E. faecium (increase in extracellular AK activity)); 0.6 in test [6] (384-well format, cutoff for positive-scoring molecules 3-fold increase, read-out: AK-based Prestwick Library Screening Results, E. coli (increase in extracellular AK activity)). In test [7] (384-well format, cutoff for positive-scoring molecules 3-fold increase, read-out: AK-based Prestwick Library Screening Results, S. aureus (increase in extracellular AK activity)), the fold induction at 50 µM came out at 0.7.
With `O=C1c2c(O)ccc(O)c2C(=O)c2c(NCCNCCO)ccc(NCCNCCO)c21` [Mitoxantrone dihydrochloride], the fold induction at 50 µM in test [1] (setting [8]) came to 1.2; in test [2] (setting [9]), 0.9; in test [3] (setting [10]), 1.5; in test [4] (setting [11]) it was 1; in test [5] (setting [12]) it was 0.8; in test [6] (planktonic, […], read-out: AK-based Prestwick Library Screening Results, E. coli (fold increase in extracellular AK activity)) it was 1.5. Moreover, the fold induction at 50 µM in test [7] (setting [14]) was determined as 0.7.
As for `O=C(NCCN1CCOCC1)c1ccc(Cl)cc1` [Moclobemide], the fold induction at 50 µM in test [1] (setting [22]) amounted to 1.2; in test [2] (setting [23]) it was 0.8; in test [3] (setting [24]), 0.7; in test [4] (setting [25]) it was 0.6; in test [5] (setting [26]), 0.9; in test [6] (setting [27]), 0.9. Besides, the fold induction at 50 µM in test [7] (setting [28]) came out at 0.6.
With `CCc1c(C)[nH]c2c1C(=O)C(CN1CCOCC1)CC2` (stereo not drawn) [Molindone hydrochloride], the fold induction at 50 µM in test [1] (planktonic E. cloacae, positive cutoff 3-fold increase, read-out: AK-based Prestwick library screening result, E. cloacae (fold increase in extracellular AK activity)) amounted to 1.7; in test [2] (planktonic P. aeruginosa, positive cutoff 3-fold increase, read-out: AK-based Prestwick library screening result, P. aeruginosa (fold increase in extracellular AK activity)) it was 0.9; in test [3] (planktonic A. baumannii, positive cutoff 3-fold increase, read-out: AK-based Prestwick library screening result, A. baumannii (fold increase in extracellular AK activity)), 1.1; in test [4] (planktonic K. pneumoniae, positive cutoff 3-fold increase, read-out: AK-based Prestwick library screening result, K. pneumoniae (fold increase in extracellular AK activity)) it was 1; in test [5] (planktonic E. faecium, positive cutoff 3-fold increase, read-out: AK-based Prestwick library screening result, E. faecium (fold increase in extracellular AK activity)), 1; in test [6] (planktonic E. coli, positive cutoff 3-fold increase, read-out: AK-based Prestwick library screening result, E. coli (fold increase in extracellular AK activity)), 1.1. Further, the fold induction at 50 µM in test [7] (planktonic S. aureus, positive cutoff 3-fold increase, read-out: AK-based Prestwick library screening result, S. aureus (fold increase in extracellular AK activity)) worked out at 1.1.
Regarding `CCOC(=O)[N-]c1cn(N2CCOCC2)n[o+]1` [Molsidomine], the fold induction at 50 µM in test [1] (setting [8]) is 1.5; in test [2] (setting [9]), 1.1; in test [3] (setting [10]), 1.2; in test [4] (setting [11]), 1; in test [5] (setting [12]), 0.9; in test [6] (setting [13]) it was 1.4. Moreover, the fold induction at 50 µM in test [7] (setting [14]) came out at 0.9.
As to `C[C@@H]1C[C@H]2[C@@H]3CCC4=CC(=O)C=C[C@]4(C)[C@@]3(Cl)[C@@H](O)C[C@]2(C)[C@@]1(OC(=O)c1ccco1)C(=O)CCl` [Mometasone furoate], the fold induction at 50 µM in test [1] (setting [22]) came to 0.9; in test [2] (setting [23]), 0.6; in test [3] (setting [24]) it was 0.9; in test [4] (setting [25]) it was 0.7; in test [5] (setting [26]) it was 1; in test [6] (setting [27]) it was 0.9. In addition, the fold induction at 50 µM in test [7] (setting [28]) came to 0.4.
